The source of these data is patent US20200326355A1, “Methods and Systems to Measure Cannabidiol (CBD)” (Laboratory Corporation of America Holdings, priority 2019, published 2020).

This data set is described as follows: LC-MS/MS measurement of hydrolyzed cannabinoid metabolites in urine of donors known to be CBD users. The following applies: urine of seven known CBD users abstaining from marijuana.

For the compound `CCCCCc1cc(O)c2c(c1)OC(C)(C)[C@@H]1CCC(C)=C[C@@H]21` [THC, Tetrahydrocannabinol], the “Parent THC detection in donated samples” value (16 samples) is given as “not detected”.

Take `CCCCCc1cc(O)c2c(c1)OC(C)(C)[C@@H]1CCC(C(=O)O)=C[C@@H]21` [COO-THC, 11-carboxy Δ9-THC]: where the note is “13 of 16 samples detectible, all but one below the bound”, the “carboxy-THC level in donated samples” value is given as “less than 15 ng/mL”.
